In ChEMBL document CHEMBL1122538, “Functional group contributions to drug-receptor interactions” (J Med Chem, 1984) one finds Binding energy data, which are given here for 57 compounds.

A short description of this data set: Binding energy by using the equation deltaG obsd = -RT ln KD. In kind it is ADME.
With `Nc1ncnc2c1ncn2[C@@H]1O[C@H](CO)C[C@H]1O` [CORDYCEPIN], the Binding energy was found to be 8.2 kcal/mol. Take `C=C1CC[C@H](O)C/C1=C/C=C1\CCC[C@]2(C)[C@@H]([C@H](C)CCC(O)C(C)(C)O)CC[C@@H]12` (some centres not stated): the Binding energy is 13.2 kcal/mol.

`C(=C\c1ccccc1)/CN1CCN(C(c2ccccc2)c2ccccc2)CC1` [CINNARIZINE] yielded a Binding energy of 8.4 kcal/mol. The same measure for `NCCc1ccccc1` [PHENETHYLAMINE]: 5.5 kcal/mol; for `CCC(C)CN` (configuration not stated): 2.8 kcal/mol. The same measure for `NCCc1ccc(O)c(O)c1` [DOPAMINE]: 11.8 kcal/mol; for `O=P(O)(O)OC[C@H]1O[C@](O)(CO)[C@@H](O)[C@@H]1O`: 5.7 kcal/mol; for `CC(=O)O` [ACETIC ACID]: 3.1 kcal/mol. In the case of `CC[C@@H]1C(=O)OC[C@@H]1Cc1cncn1C` [PILOCARPINE], the Binding energy was 10.1 kcal/mol. The same measure for `CN1Cc2c(N)cccc2C(c2ccccc2)C1` (configuration not stated) [NOMIFENSINE]: 8.8 kcal/mol. The result for `Cc1cc(C(C)(C)C)c(O)c(C)c1CC1=NCCN1` [OXYMETAZOLINE] reads 12.2 kcal/mol; that for `C[N+](C)(C)CCOC(N)=O.[Cl-]` [CARBACHOL], 10.7 kcal/mol. The same measure for `CC(=O)CC(=O)C(=O)O`: 9.1 kcal/mol; for `O=C1CCCN1CC#CCN1CCCC1` [OXOTREMORINE]: 11.7 kcal/mol. In the case of `CC[C@H](C)[C@H](N)C(=O)O` [ISOLEUCINE], the Binding energy came out at 7.1 kcal/mol. As to `CSc1ccc2c(c1)N(CCC1CCCCN1C)c1ccccc1S2` (configuration not stated) [THIORIDAZINE], the Binding energy worked out at 11 kcal/mol. The same measure for `NC(CO)Cc1ccccc1` (configuration not stated): 7.1 kcal/mol. The result for `CNC(=O)Oc1cccc2c1OC(C)(C)C2` [CARBOFURAN] reads 4.6 kcal/mol. The result for `CNCCC(Oc1ccccc1OC)c1ccccc1` (configuration not stated) [NISOXETINE] reads 11.5 kcal/mol. In turn, `CNC(=O)Oc1cccc2ccccc12` [CARBARIL] returned a Binding energy of 6.4 kcal/mol. In turn, `NC(=O)C(N)Cc1ccccc1` (configuration not stated) yielded a Binding energy of 6.1 kcal/mol.

`O=C1CCC(c2ccccc2)(C2CCN(Cc3ccccc3)CC2)C(=O)N1` (configuration not stated) [BENZETIMIDE] gave a Binding energy of 12 kcal/mol. Compound `CCN` [ETHYLAMINE] had a Binding energy of 2.2 kcal/mol. On to `CC(C(=O)O)c1ccc(-c2ccccc2)c(F)c1` (configuration not stated) [FLURBIPROFEN], for which the Binding energy came out at 9.1 kcal/mol. The result for `COC1C2CCN(CC3CC3)C1Cc1ccc(O)cc12` (configuration not stated) reads 12.2 kcal/mol. The same measure for `C[C@H]1[C@H]2C(=O)c3ccc(O)cc3[C@]1(C)CCN2CC1CC1` [KETAZOCINE]: 11.4 kcal/mol. The result for `Cc1ncc(CO)c(CN[C@@H](C)C(=O)O)c1O` reads 9.2 kcal/mol. For the compound `c1ccc2c(c1)OCC(CN1CCCCC1)O2` (configuration not stated) [PIPEROXAN], the Binding energy was determined as 10.7 kcal/mol. The result for `Cc1nc(N)nc(N)c1-c1ccc(Cl)c(Cl)c1` [METOPRINE] reads 12.3 kcal/mol. The same measure for `Nc1nc(N)c2nc(Cc3ccccc3)cnc2n1`: 12.3 kcal/mol; for `NCCCC(=O)O` [GAMMA-AMINOBUTYRIC ACID]: 10.9 kcal/mol; for `NC(=O)C1(N2CCCCC2)CCN(CCCC(=O)c2ccc(F)cc2)CC1` [PIPAMPERONE]: 12.4 kcal/mol.

The compound `CN1CCC(=C2c3ccccc3CCc3sccc32)CC1` [PIZOTYLINE] displayed a Binding energy of 13 kcal/mol.

Turning to `O=P(O)(O)CCCCO`, the Binding energy amounted to 3.3 kcal/mol. `COC(=O)C1=CCCN(C)C1` [ARECOLINE] displayed a Binding energy of 7.2 kcal/mol.

`COc1ccc(CN(CCN(C)C)c2ccccn2)cc1` [PYRILAMINE] showed a Binding energy of 12.7 kcal/mol. Take `Cc1ccc(F)cc1NC1=NCCN1` [FLUTONIDINE]: the Binding energy was 11.4 kcal/mol. The result for `Cc1cccc(C)c1N=C1NCCCS1` [XYLAZINE] reads 11.3 kcal/mol; that for `CCc1nc(N)nc(N)c1-c1ccc(Cl)cc1` [PYRIMETHAMINE], 9.7 kcal/mol; that for `CC(C)(C)NC[C@H](O)COc1nsnc1N1CCOCC1` [TIMOLOL], 13 kcal/mol. The result for `O=C(O)CC(O)(CC(=O)O)C(=O)O` [CITRIC ACID] reads 5 kcal/mol. Turning to `CNCCCC1c2ccccc2C=Cc2ccccc21` [PROTRIPTYLINE], the Binding energy is 10.8 kcal/mol. The result for `CCCCC[C@H](O)/C=C/[C@H]1[C@H](O)CC(=O)[C@@H]1C/C=C\CCCC(=O)O` [DINOPROSTONE] reads 11.5 kcal/mol; that for `CC(N)Cc1ccccc1` (configuration not stated) [AMPHETAMINE], 6.8 kcal/mol.

As for `O=C(O)CCCC[C@@H]1SC[C@@H]2NC(=O)N[C@@H]21` [BIOTIN], the Binding energy worked out at 20.5 kcal/mol.

`O=c1oc2ccccc2c(O)c1Cc1c(O)c2ccccc2oc1=O` [DICUMAROL] gave a Binding energy of 8.8 kcal/mol. `C[C@@H]1O[C@@H](O[C@H]2C[C@@H](O)[C@]3(CO)[C@H]4[C@H](O)C[C@]5(C)[C@@H](C6=CC(=O)OC6)CC[C@]5(O)[C@@H]4CC[C@]3(O)C2)[C@H](O)[C@H](O)[C@H]1O` [OUABAIN] gave a Binding energy of 11.5 kcal/mol. The same measure for `CN(C)CCc1c[nH]c2ccc(O)cc12` [BUFOTENINE]: 9.4 kcal/mol; for `ClC1=C(Cl)[C@]2(Cl)[C@@H]3[C@@H]4C[C@@H]([C@H]5O[C@@H]45)[C@@H]3[C@@]1(Cl)C2(Cl)Cl` [DIELDRIN]: 6.1 kcal/mol; for `CCCC(CCC)C(=O)O` [VALPROIC ACID]: 6.1 kcal/mol. The result for `CO[C@]12CC[C@@]3(C[C@@H]1[C@](C)(O)C(C)(C)C)[C@H]1Cc4ccc(O)c5c4[C@@]3(CCN1CC1CC1)[C@H]2O5` [BUPRENORPHINE] reads 13.4 kcal/mol; that for `Cc1ccc(N(CC2=NCCN2)c2cccc(O)c2)cc1` [PHENTOLAMINE], 11.9 kcal/mol; that for `CCN(CC)C(=O)[C@@H]1C=C2c3cccc4[nH]cc(c34)C[C@H]2N(C)C1` [LYSERGIDE], 12.7 kcal/mol. `Cc1c(O)oc2ccccc2c1=O` gave a Binding energy of 7 kcal/mol. The same measure for `Oc1ncnc2[nH]ncc12` [ALLOPURINOL]: 12.5 kcal/mol; for `O=C(O)Cc1cc(I)c(Oc2ccc(O)c(I)c2)c(I)c1` [TIRATRICOL]: 9.3 kcal/mol. With `O=P(O)(O)O[C@H]1OC[C@@H](O)[C@H](O)[C@H]1O`, the Binding energy was 6.2 kcal/mol.
